# Results published in US20080119515A1, “Heterocyclic Kinase Inhibitors: Methods of Use and Synthesis” (priority 2003, published 2008).
# Target: T1, ZAP-70 (Homo sapiens, UniProt P43403)
# T1 sequence (P43403 1-619): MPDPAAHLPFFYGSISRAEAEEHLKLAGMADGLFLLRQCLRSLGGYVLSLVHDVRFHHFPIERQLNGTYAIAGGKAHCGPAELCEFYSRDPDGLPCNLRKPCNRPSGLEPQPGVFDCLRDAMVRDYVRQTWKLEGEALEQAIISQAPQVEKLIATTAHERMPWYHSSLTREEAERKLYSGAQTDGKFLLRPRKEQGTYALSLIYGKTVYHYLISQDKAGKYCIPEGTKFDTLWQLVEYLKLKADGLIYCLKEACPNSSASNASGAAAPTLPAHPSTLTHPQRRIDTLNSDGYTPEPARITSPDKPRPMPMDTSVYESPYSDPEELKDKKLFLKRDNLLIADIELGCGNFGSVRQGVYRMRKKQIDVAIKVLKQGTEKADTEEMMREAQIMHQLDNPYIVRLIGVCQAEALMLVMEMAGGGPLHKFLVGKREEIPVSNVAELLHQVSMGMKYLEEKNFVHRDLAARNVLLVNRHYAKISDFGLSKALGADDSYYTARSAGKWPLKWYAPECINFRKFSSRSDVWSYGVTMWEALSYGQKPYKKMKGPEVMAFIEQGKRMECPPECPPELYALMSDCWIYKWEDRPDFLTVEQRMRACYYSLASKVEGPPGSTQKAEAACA
# Assay: DELFIA assay (ZAP-70 kinase, phosphorylation of biotinylated poly(glu,tyr))
# Format: biochemical
# Settings: ZAP-70 DELFIA, class symbols; read-out: Activity (IC50 in vitro)
# How it was run: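 3.1 nM ZAP-70 pre-incubated 10 min at room temperature with compound ([…]) and 62.5 nM biotinylated poly(glu,tyr) in 62.5 mM Mops pH 7.0, 12.5 mM MgCl2, 12.5% glycerol, 6.25% DMSO (pre-incubation concentrations); ATP added from 5 mM stock, 30 min reaction, EDTA stop. Phosphorylation read by DELFIA europium anti-phosphotyrosine fluorescence (340/615).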
row,SMILES,IC50
1,Nc1cc(CCc2ccc(C(F)(F)F)cc2)cc2c(C(=O)N3CCC[C@H]3CN3CCCC3)cc(CCc3ccc(C(F)(F)F)cc3)nc12 [Compound 433],< 1 µM
2,O=C(c1cc(Nc2ccc3c(c2)OCO3)nc2ccc(-c3ccc4c(c3)OCO4)cc12)N1CCC[C@H]1CN1CCCC1 [Compound 53],< 1 µM
3,FC(F)(F)c1ccc(CNc2cc(CN3CCC[C@H]3CN3CCCC3)c3cc(-c4ccc5c(c4)OCO5)ccc3n2)cc1 [Compound 94],1 to 10 µM
4,O=C(c1cc(Cc2ccc(N3CCN(Cc4ccncc4)CC3)cc2)nc2ccc(-c3ccc4c(c3)OCO4)cc12)N1CCCC1CN1CCCC1 (centres unmarked) [Compound 443],< 1 µM
5,Cc1ccc(CNc2cc(C(=O)N3CCC[C@H]3CN3CCCC3)c3cc(-c4ccc(C#N)cc4)ccc3n2)c(C)c1 [Compound 224],> 10 µM
6,O=C(c1cc(N2CCC[C@H]2CO)nc2ccc(-c3ccc4c(c3)OCO4)cc12)N1CCC[C@H]1CN1CCCC1 [Compound 327],> 10 µM
7,N#Cc1ccc(-c2ccc3nc(NCc4ccc(F)cc4Cl)cc(C(=O)N4CCC[C@H]4CN4CCCC4)c3c2)cc1 [Compound 250],> 10 µM
8,O=C(c1cc(NCc2ccc(Cl)cc2)nc2ccc(-c3ccc4c(c3)OCO4)cc12)N1CC2CC2[C@H]1CN1CCCC1 (some centres unmarked) [Compound 146],1 to 10 µM
9,N#Cc1ccc(-c2ccc3nc(NCc4cc(Cl)ccc4F)cc(C(=O)N4CCC[C@H]4CN4CCCC4)c3c2)cc1 [Compound 230],> 10 µM
10,O=C(c1cc(N2CCC[C@@H]2CO)nc2ccc(-c3ccc4c(c3)OCO4)cc12)N1CCC[C@H]1CN1CCCC1 [Compound 91],< 1 µM
11,O=C(c1cc(CCc2ccc(-c3ccccc3)cc2)nc2ccc(-c3ccc4c(c3)OCO4)cc12)N1CCC[C@H]1CN1CCCC1 [Compound 393],< 1 µM
12,O=C(c1cc(Nc2ccc3c(c2)OCO3)nc2ccccc12)N1CCC[C@H]1CN1CCCC1 [Compound 8],> 10 µM
13,N#Cc1ccc(-c2ccc3nc(N4CCC(c5cccc(F)c5)C4)cc(C(=O)N4CCC[C@H]4CN4CCCC4)c3c2)cc1 (some centres unmarked) [Compound 263],> 10 µM
14,O=C(c1cc(Nc2ccc3cn[nH]c3c2)nc2ccc(-c3ccc4c(c3)OCO4)cc12)N1CCC[C@H]1CN1CCCC1 [Compound 57],< 1 µM
15,N=C(NC1CCCC1)[C@@H]1CCCN1C(=O)c1cc(NCc2ccc(C(F)(F)F)cc2)nc2ccc(-c3ccc4c(c3)OCO4)cc12 [Compound 379],> 10 µM
16,Cc1ccc(CNc2cc(C(=O)N3CCC[C@H]3CN3CCCC3)c3cc(-c4ccc(C#N)cc4)ccc3n2)cc1 [Compound 178],> 10 µM
17,Cn1ccnc1-c1ccc2nc(NCc3ccc(C(F)(F)F)cc3)cc(C(=O)N3CCC[C@H]3CN3CCCC3)c2c1 [Compound 340],> 10 µM
18,CC[C@H](Nc1cc(C(=O)N2CCC[C@H]2CN2CCCC2)c2cc(-c3ccc(C#N)cc3)ccc2n1)c1ccccc1 [Compound 171],> 10 µM
19,CCN(Cc1ccc(C)cc1)c1cc(C(=O)N2CCC[C@H]2CN2CCCC2)c2cc(-c3ccc(C#N)cc3)ccc2n1 [Compound 244],> 10 µM
20,O=C(Nc1cc(C(=O)N2CCC[C@H]2CN2CCCC2)c2cc(-c3ccc4c(c3)OCO4)ccc2n1)c1ccccc1 [Compound 385],1 to 10 µM
21,COc1ccccc1CCNc1cc(C(=O)N2CCC[C@H]2CN2CCCC2)c2cc(-c3ccc(C#N)cc3)ccc2n1 [Compound 313],1 to 10 µM
22,N#Cc1ccc(-c2ccc3nc(N4CCCC(c5ccccc5)C4)cc(C(=O)N4CCC[C@H]4CN4CCCC4)c3c2)cc1 (some centres unmarked) [Compound 265],> 10 µM
23,O=C(c1cc(NCc2ccc(C(F)(F)F)cc2)nc2ccc(-c3ccc(F)c(Cl)c3)cc12)N1CCC[C@H]1CN1CCCC1 [Compound 303],< 1 µM
24,N#Cc1ccc(-c2ccc3nc(NCc4ccc(C(F)(F)F)cc4F)cc(C(=O)N4CCC[C@H]4CN4CCCC4)c3c2)cc1 [Compound 240],> 10 µM

row,SMILES,IC50
1,COCCN1CCN(c2cc(C(=O)N3CCC[C@H]3CN3CCCC3)c3cc(-c4ccc5c(c4)OCO5)ccc3n2)CC1 [Compound 73],1 to 10 µM
2,O=C(c1cc(NCc2ccc(C(F)(F)F)cc2)nc2ccc(-c3ccc4c(c3)OCO4)cc12)N1CCC(CN2CCCC2)C1 (centres unmarked) [Compound 110],> 10 µM
3,CN(Cc1ccccc1)c1cc(C(=O)N2CCC[C@H]2CN2CCCC2)cc(/C=C/c2ccccc2)n1 [Compound 279],> 10 µM
4,O=C(c1cc(NCc2ccc(C(F)(F)F)cc2)nc2ccc(-c3ccc4c(c3)OCO4)cc12)N1CCC[C@H]1CN1CCCC1 [Compound 44],< 1 µM
5,N#Cc1ccc(-c2ccc3nc(N4CCSC(c5ccccc5)C4)cc(C(=O)N4CCC[C@H]4CN4CCCC4)c3c2)cc1 (some centres unmarked) [Compound 256],> 10 µM
6,O=C(c1cc(CCc2ccc(Cl)cc2)nc2ccc(-c3ccc4c(c3)OCO4)cc12)N1CCC[C@H]1CN1CCCC1 [Compound 136],1 to 10 µM
7,CC(Nc1cc(C(=O)N2CCC[C@H]2CN2CCCC2)c2cc(-c3ccc4c(c3)OCO4)ccc2n1)c1ccc(F)cc1 (some centres unmarked) [Compound 117],< 1 µM
8,COC[C@@H]1CCCN1c1cc(C(=O)N2CCC[C@H]2CN2CCCC2)c2cc(-c3ccc4c(c3)OCO4)ccc2n1 [Compound 329],> 10 µM
9,CN(C)CCCN1CCN(c2ccc(Cc3cc(C(=O)N4CCCC4CN4CCCC4)c4cc(-c5ccc6c(c5)OCO6)ccc4n3)cc2)CC1 (centres unmarked) [Compound 441],< 1 µM
10,N#Cc1ccc(-c2ccc3nc(NCc4cccc(Cl)c4F)cc(C(=O)N4CCC[C@H]4CN4CCCC4)c3c2)cc1 [Compound 229],> 10 µM
11,CCN(CCOC)c1cc(C(=O)N2CCC[C@H]2CN2CCCC2)c2cc(-c3ccc4c(c3)OCO4)ccc2n1 [Compound 72],1 to 10 µM
12,N#Cc1ncccc1-c1ccc2nc(NCc3ccc(C(F)(F)F)cc3)cc(C(=O)N3CCC[C@H]3CN3CCCC3)c2c1 [Compound 343],> 10 µM
13,O=C(c1cc(/C=C/c2ccccc2)nc(/C=C/c2ccccc2)c1)N1CCC[C@H]1CN1CCCC1 [Compound 116],1 to 10 µM
14,N#Cc1ccc(-c2ccc3nc(N4CCc5ccccc5C4)cc(C(=O)N4CCC[C@H]4CN4CCCC4)c3c2)cc1 [Compound 153],> 10 µM
15,O=C(c1cc(Nc2ccc3cn[nH]c3c2)nc2ccccc12)N1CCC[C@H]1CN1CCCC1 [Compound 10],> 10 µM
16,COC[C@H](Cc1ccccc1)Nc1cc(C(=O)N2CCC[C@H]2CN2CCCC2)c2cc(-c3ccc(C#N)cc3)ccc2n1 [Compound 185],> 10 µM
17,N#Cc1ccc(-c2ccc3nc(NCc4ccc(OC(F)F)cc4)cc(C(=O)N4CCC[C@H]4CN4CCCC4)c3c2)cc1 [Compound 233],> 10 µM
18,Cc1ccc(CCNc2cc(C(=O)N3CCC[C@H]3CN3CCCC3)c3cc(-c4ccc(C#N)cc4)ccc3n2)cc1 [Compound 173],> 10 µM
19,O=C(c1cc(CCCc2ccccc2)nc2ccc(-c3ccc4c(c3)OCO4)cc12)N1CCC[C@H]1CN1CCCC1 [Compound 434],< 1 µM
20,COc1cccc(CCNc2cc(C(=O)N3CCC[C@H]3CN3CCCC3)c3cc(-c4ccc(C#N)cc4)ccc3n2)c1 [Compound 197],> 10 µM
21,N#Cc1ccc(-c2ccc3nc(NCc4cccc(OC(F)(F)F)c4)cc(C(=O)N4CCC[C@H]4CN4CCCC4)c3c2)cc1 [Compound 190],> 10 µM
22,N#Cc1ccc(-c2ccc3nc(/C=C/c4ccc(Cl)cc4)cc(C(=O)N4CCC[C@H]4CN4CCCC4)c3c2)cc1 [Compound 387],1 to 10 µM
23,O=C(c1cc(NCc2ccc(C(F)(F)F)cc2)nc2ccc(-c3ccc(C4CCNC[C@H]4O)cc3)cc12)N1CCC[C@H]1CN1CCCC1 (some centres unmarked) [Compound 426],> 10 µM
